Test results from patent US9695155B2, “Herbicidal substituted pyrimidinyloxy benzene compounds” (E. I. DU PONT DE NEMOURS AND COMPANY, priority 2013, dated 2017).

What was measured:
large (Lg) crabgrass [1] = assay: Test A preemergence; format: in vivo, Digitaria sanguinalis
How it was run: (§1)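 Scoring: eye-based comparison with untreated controls, 0 for no effect through 100 for complete control, at about day 10. Treatments: directed soil spray preemergence; foliar spray postemergence on 2–10 cm plants at the one- to two-leaf stage. Medium: loam soil with sand.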

giant foxtail [2] = assay: Test A preemergence; format: in vivo, Setaria faberii
How it was run: as §1

pigweed [3] = assay: Test A preemergence; format: in vivo, Amaranthus retroflexus
How it was run: as §1

velvetleaf [4] = assay: Test A preemergence; format: in vivo, Abutilon theophrasti
How it was run: as §1

large (Lg) crabgrass [5] = assay: Test A postemergence; format: in vivo, Digitaria sanguinalis
How it was run: as §1

giant foxtail [6] = assay: Test A postemergence; format: in vivo, Setaria faberii
How it was run: as §1

pigweed [7] = assay: Test A postemergence; format: in vivo, Amaranthus retroflexus
How it was run: as §1

velvetleaf [8] = assay: Test A postemergence; format: in vivo, Abutilon theophrasti
How it was run: as §1

wheat, winter = assay: Test C postemergence; format: in vivo, Triticum aestivum; details: for Plant response rating (0 to 100), Wheat: 16 g ai/ha, 0 is no effect, 100 is complete control; for Wheat plant response rating: 31 g ai/ha; for Wheat plant response rating / Plant response rating, Wheat: scale 0 to 100 (0 no effect, 100 complete control)
How it was run: (§2)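 Greenhouse herbicide screen. Pre: seeded loam/sand, sprayed at planting. Post: 1–4 leaf plants (2–18 cm) in peat-based mix. Formulation: solvent mixture + surfactant, non-phytotoxic. Readout: visual % control vs untreated, 13–15 d; dash = not tested.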

giant foxtail [9] = assay: Test C postemergence; format: in vivo, Setaria faberii; details: for Plant response rating (0 to 100), Foxtail, Giant: 16 g ai/ha, 0 is no effect, 100 is complete control; for Foxtail, Giant plant response rating: 31 g ai/ha; for Foxtail, Giant plant response rating / Plant response rating, Foxtail, Giant: scale 0 to 100 (0 no effect, 100 complete control)
How it was run: as §2

ragweed = assay: Test C postemergence; format: in vivo, Ambrosia elatior; details: for Plant response rating (0 to 100), Ragweed: 16 g ai/ha, 0 is no effect, 100 is complete control; for Ragweed plant response rating: 31 g ai/ha; for Ragweed plant response rating / Plant response rating, Ragweed: scale 0 to 100 (0 no effect, 100 complete control)
How it was run: as §2

soybean = assay: Test C postemergence; format: in vivo, Glycine max; details: for Plant response rating (0 to 100), Soybean: 16 g ai/ha, 0 is no effect, 100 is complete control; for Soybean plant response rating: 31 g ai/ha; for Soybean plant response rating / Plant response rating, Soybean: scale 0 to 100 (0 no effect, 100 complete control)
How it was run: as §2

wild oat = assay: Test C postemergence; format: in vivo, Avena fatua; details: for Plant response rating (0 to 100), Oat, Wild: 16 g ai/ha, 0 is no effect, 100 is complete control; for Oat, Wild plant response rating: 31 g ai/ha; for Oat, Wild plant response rating / Plant response rating, Oat, Wild: scale 0 to 100 (0 no effect, 100 complete control)
How it was run: as §2

velvetleaf [10] = assay: Test C postemergence; format: in vivo, Abutilon theophrasti; details: for Plant response rating (0 to 100), Velvetleaf: 16 g ai/ha, 0 is no effect, 100 is complete control; for Velvetleaf plant response rating: 31 g ai/ha; for Velvetleaf plant response rating / Plant response rating, Velvetleaf: scale 0 to 100 (0 no effect, 100 complete control)
How it was run: as §2

chickweed = assay: Test C postemergence; format: in vivo, Stellaria media; details: for Plant response rating (0 to 100), Chickweed: 16 g ai/ha, 0 is no effect, 100 is complete control; for Chickweed plant response rating: 31 g ai/ha; for Chickweed plant response rating / Plant response rating, Chickweed: scale 0 to 100 (0 no effect, 100 complete control)
How it was run: as §2

[11] = 1000 g ai/ha, 0 to 100 scale, 0 no effect, 100 complete control, approx. 10 days
[12] = 1000 g ai/ha, 0 to 100 scale, 0 no effect, 100 complete control
[13] = postemergence, visual rating, 13 to 15 days
[14] = 125 g ai/ha, postemergence, visual rating
[15] = Postemergence, 62 g ai/ha, 13 to 15 days
[16] = 500 g ai/ha, 0 to 100 scale where 0 is no effect and 100 is complete control
[17] = 125 g ai/ha, 0 to 100 scale where 0 is no effect and 100 is complete control

Clc1cnc(Oc2ccccc2-n2cc(Br)nn2)nc1 [Compound 223]
Crabgrass, Large plant response rating (large (Lg) crabgrass [1]; [11]): 100
Foxtail, Giant plant response rating (giant foxtail [2]; [11]): 100
Pigweed plant response rating (pigweed [3]; [11]): 100
Velvetleaf plant response rating (velvetleaf [4]; [11]): 100
Plant response rating, Crabgrass, Large (large (Lg) crabgrass [5]; [12]): 100
Plant response rating, Foxtail, Giant (giant foxtail [6]; [12]): 90
Plant response rating, Pigweed (pigweed [7]; [12]): 100
Plant response rating, Velvetleaf (velvetleaf [8]; [12]): 100
Plant response rating (0 to 100), Wheat (wheat, winter; postemergence): 0
Wheat plant response rating (wheat, winter; [13]): 0
Plant response rating, Wheat (wheat, winter; [14]): 5
Plant response rating, Wheat (wheat, winter; [15]): 0
Plant response rating (0 to 100), Foxtail, Giant (giant foxtail [9]; postemergence): 5
Foxtail, Giant plant response rating (giant foxtail [9]; [13]): 5
Plant response rating, Foxtail, Giant (giant foxtail [9]; [14]): 5
Plant response rating, Foxtail, Giant (giant foxtail [9]; [15]): 5
Plant response rating (0 to 100), Ragweed (ragweed; postemergence): 10
Ragweed plant response rating (ragweed; [13]): 20
Plant response rating, Ragweed (ragweed; [14]): 75
Plant response rating, Ragweed (ragweed; [15]): 55
Plant response rating (0 to 100), Soybean (soybean; postemergence): 60
Soybean plant response rating (soybean; [13]): 65
Plant response rating, Soybean (soybean; [14]): 95
Plant response rating, Soybean (soybean; [15]): 85
Plant response rating (0 to 100), Oat, Wild (wild oat; postemergence): 0
Oat, Wild plant response rating (wild oat; [13]): 0
Plant response rating, Oat, Wild (wild oat; [14]): 5
Plant response rating, Oat, Wild (wild oat; [15]): 0
Plant response rating (0 to 100), Velvetleaf (velvetleaf [10]; postemergence): 30
Velvetleaf plant response rating (velvetleaf [10]; [13]): 55
Plant response rating, Velvetleaf (velvetleaf [10]; [14]): 90
Plant response rating, Velvetleaf (velvetleaf [10]; [15]): 80
Plant response rating (0 to 100), Chickweed (chickweed; postemergence): 35
Chickweed plant response rating (chickweed; [13]): 50
Plant response rating, Chickweed (chickweed; [14]): 60
Plant response rating, Chickweed (chickweed; [15]): 50

Fc1cnc(Oc2ccccc2-n2cc(C(F)F)cn2)nc1 [Compound 228]
Crabgrass, Large plant response rating (0 to 100 scale) (large (Lg) crabgrass [1]; 125 g ai/ha): 90
Crabgrass, Large plant response rating (large (Lg) crabgrass [1]; [16]): 100
Foxtail, Giant plant response rating (0 to 100 scale) (giant foxtail [2]; 125 g ai/ha): 90
Foxtail, Giant plant response rating (giant foxtail [2]; [16]): 100
Pigweed plant response rating (0 to 100 scale) (pigweed [3]; 125 g ai/ha): 0
Pigweed plant response rating (pigweed [3]; [16]): 0
Velvetleaf plant response rating (0 to 100 scale) (velvetleaf [4]; 125 g ai/ha): 70
Velvetleaf plant response rating (velvetleaf [4]; [16]): 100
Crabgrass, Large plant response rating (large (Lg) crabgrass [5]; [17]): 40
Plant response rating, Crabgrass, Large (large (Lg) crabgrass [5]; [16]): 90
Foxtail, Giant plant response rating (giant foxtail [6]; [17]): 50
Plant response rating, Foxtail, Giant (giant foxtail [6]; [16]): 90
Pigweed plant response rating (pigweed [7]; [17]): 100
Plant response rating, Pigweed (pigweed [7]; [16]): 100
Velvetleaf plant response rating (velvetleaf [8]; [17]): 100
Plant response rating, Velvetleaf (velvetleaf [8]; [16]): 100
Plant response rating (0 to 100), Wheat (wheat, winter; postemergence): 0
Wheat plant response rating (wheat, winter; [13]): 0
Plant response rating, Wheat (wheat, winter; [14]): 0
Plant response rating, Wheat (wheat, winter; [15]): 0
Plant response rating (0 to 100), Foxtail, Giant (giant foxtail [9]; postemergence): 0
Foxtail, Giant plant response rating (giant foxtail [9]; [13]): 0
Plant response rating, Foxtail, Giant (giant foxtail [9]; [14]): 5
Plant response rating, Foxtail, Giant (giant foxtail [9]; [15]): 0
Plant response rating (0 to 100), Ragweed (ragweed; postemergence): 5
Ragweed plant response rating (ragweed; [13]): 20
Plant response rating, Ragweed (ragweed; [14]): 45
Plant response rating, Ragweed (ragweed; [15]): 55
Plant response rating (0 to 100), Soybean (soybean; postemergence): 25
Soybean plant response rating (soybean; [13]): 35
Plant response rating, Soybean (soybean; [14]): 80
Plant response rating, Soybean (soybean; [15]): 60
Plant response rating (0 to 100), Oat, Wild (wild oat; postemergence): 0
Oat, Wild plant response rating (wild oat; [13]): 0
Plant response rating, Oat, Wild (wild oat; [14]): 5
Plant response rating, Oat, Wild (wild oat; [15]): 0
Plant response rating (0 to 100), Velvetleaf (velvetleaf [10]; postemergence): 15
Velvetleaf plant response rating (velvetleaf [10]; [13]): 55
Plant response rating, Velvetleaf (velvetleaf [10]; [14]): 70
Plant response rating, Velvetleaf (velvetleaf [10]; [15]): 60
Plant response rating (0 to 100), Chickweed (chickweed; postemergence): 10
Chickweed plant response rating (chickweed; [13]): 30
Plant response rating, Chickweed (chickweed; [14]): 50
Plant response rating, Chickweed (chickweed; [15]): 50
